Key:
[1] = tested on: barnyardgrass; experiment: Test A pre-/postemergence herbicide test; type: in vivo, Echinochloa crus-galli
Method in brief: (§1)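 Seeds sown in sandy loam received a preemergence directed soil spray of compound in non-phytotoxic solvent with surfactant; postemergence plants (2–10 cm, one- to two-leaf stage) were sprayed to runoff at the same time. After ~10 days in greenhouse, injury was rated visually versus untreated controls (0 = no effect, 100 = complete control).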

[2] = tested on: morningglory; experiment: Test A pre-/postemergence herbicide test; type: in vivo, Ipomoea spp.
Method in brief: as §1

[3] = tested on: redroot pigweed; experiment: Test A pre-/postemergence herbicide test; type: in vivo, Amaranthus retroflexus
Method in brief: as §1

[4] = tested on: bermudagrass; experiment: Test C pre-/postemergence herbicide test; type: in vivo, Cynodon dactylon; conditions: for Bermudagrass plant response rating: Preemergence
Method in brief: (§2)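 Seeds were planted and sprayed preemergence with test chemicals in a non-phytotoxic solvent mixture containing surfactant; postemergence treatments went onto plants 2 to 18 cm tall (1- to 4-leaf stage). After 12 to 14 days in a greenhouse, injury was rated visually against untreated controls on a 0–100 scale.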

[5] = tested on: large crabgrass; experiment: Test C pre-/postemergence herbicide test; type: in vivo, Digitaria sanguinalis; conditions: for Crabgrass, Large plant response rating: Preemergence, scale 0 to 100, 0 no effect, 100 complete control
Method in brief: as §2

[6] = tested on: eastern black nightshade; experiment: Test C pre-/postemergence herbicide test; type: in vivo, Solanum ptycanthum; conditions: for Nightshade plant response rating: Preemergence, scale 0 to 100, 0 no effect, 100 complete control
Method in brief: as §2

[7] = tested on: velvetleaf; experiment: Test C pre-/postemergence herbicide test; type: in vivo, Abutilon theophrasti; conditions: for Velvetleaf plant response rating: Preemergence, scale 0 to 100, 0 no effect, 100 complete control
Method in brief: as §2

[8] = tested on: ducksalad; experiment: Test C flooded paddy test; type: in vivo, Heteranthera limosa
[9] = Postemergence, 500 g ai/ha, 0 to 100 scale, 0 no effect, 100 complete control
[10] = Postemergence, 2000 g ai/ha, 0 to 100 scale, 0 no effect, 100 complete control
[11] = Preemergence, 2000 g ai/ha, visual rating, 0 to 100 scale (0 no effect, 100 complete control)
[12] = preemergence, 500 g ai/ha, visual injury, 0 to 100 scale (0 no effect, 100 complete control)
[13] = 62 g ai/ha, preemergence, scale 0 to 100, 0 no effect, 100 complete control
[14] = 125 g ai/ha, scale 0 (no effect) to 100 (complete control), visual, 12 to 14 days, preemergence
[15] = 250 g ai/ha, scale 0-100, preemergence
[16] = 500 g ai/ha, scale 0 to 100, 0 no effect, 100 complete control
[17] = 62 g ai/ha, preemergence, scale 0 to 100
[18] = 500 g ai/ha, scale 0 to 100 (0 no effect, 100 complete control), visual, 12 to 14 days, preemergence

SMILES | Barnyardgrass plant response rating [1, 9] | Plant response rating, Barnyardgrass [1, 10] | Barnyardgrass plant response rating [1, 11] | Barnyardgrass plant response rating [1, 12] | Morningglory plant response rating [2, 9] | Plant response rating, Morningglory [2, 10] | Morningglory plant response rating [2, 11] | Morningglory plant response rating [2, 12] | Pigweed plant response rating [3, 9] | Plant response rating, Pigweed [3, 10] | Pigweed plant response rating [3, 11] | Pigweed plant response rating [3, 12] | Plant response rating, Bermudagrass [4, 13] | Plant response rating, Bermudagrass [4, 15] | Plant response rating, Crabgrass, Large [5, 17] | Plant response rating, Crabgrass, Large [5, 15] | Plant response rating, Nightshade [6, 17] | Plant response rating, Nightshade [6, 15] | Plant response rating, Velvetleaf [7, 17] | Plant response rating, Velvetleaf [7, 15] | also measured
CC(=NO)c1cccc(NC(=O)c2sc(C(C)(C)C)nc2C)c1 [Compound 195] | 15 | 50 | 45 | 20 | 10 | 10 | 10 | 5 | 5 | 25 | 0 | 0 | 0 | 30 | 0 | 5 | 0 | 0 | 0 | 55 | Plant response rating, Bermudagrass [4, 14]: 0; Bermudagrass plant response rating [4, 16]: 65; Plant response rating, Crabgrass, Large [5, 14]: 0; Crabgrass, Large plant response rating ([5]; 500 g ai/ha): 70; Plant response rating, Nightshade [6, 14]: 0; Nightshade plant response rating ([6]; 500 g ai/ha): 0; Plant response rating, Velvetleaf [7, 14]: 50; Velvetleaf plant response rating ([7]; 500 g ai/ha): 100
CCNC(=O)c1cccc(NC(=O)c2sc(C(C)(C)C)nc2C)c1 [Compound 198] | 45 | 80 | 90 | 55 | 60 | 75 | 85 | 45 | 55 | 75 | 100 | 95 | 60 | 100 | 80 | 95 | 90 | 100 | 5 | 80 | Plant response rating, Bermudagrass [4, 14]: 85; Bermudagrass plant response rating [4, 16]: 100; Plant response rating, Crabgrass, Large [5, 14]: 85; Crabgrass, Large plant response rating ([5]; 500 g ai/ha): 95; Plant response rating, Nightshade [6, 14]: 95; Nightshade plant response rating ([6]; 500 g ai/ha): 100; Plant response rating, Velvetleaf [7, 14]: 80; Velvetleaf plant response rating ([7]; 500 g ai/ha): 100
CCNC(=O)c1cccc(NC(=O)c2sc(C(C)(C)C)nc2CC)n1 [Compound 213] | 25 | 45 | 70 | 40 | 20 | 10 | 60 | 25 | 30 | 40 | 95 | 75 | 50 | 80 | 0 | 100 | 100 | 100 | 0 | 0 | Plant response rating, Bermudagrass [4, 14]: 60; Bermudagrass plant response rating [4, 16]: 90; Plant response rating, Crabgrass, Large [5, 14]: 50; Plant response rating, Crabgrass, Large [5, 18]: 100; Plant response rating, Nightshade [6, 14]: 100; Plant response rating, Nightshade [6, 18]: 100; Plant response rating, Velvetleaf [7, 14]: 0; Plant response rating, Velvetleaf [7, 18]: 0
CCc1nn(C(C)(C)C)nc1C(=S)Nc1cccc(C(=S)N(C)C)c1 [Compound 396] |  |  |  |  |  |  |  |  |  |  |  |  | 95 | 100 | 100 | 100 | 95 | 100 | 0 | 100 | Plant response rating (0 = no effect, 100 = complete control), Bermudagrass ([4]; 125 g ai/ha, preemergence): 100; Plant response rating, Bermudagrass [4, 18]: 100; Plant response rating (0 = no effect, 100 = complete control), Crabgrass, Large ([5]; 125 g ai/ha, preemergence): 100; Plant response rating, Crabgrass, Large [5, 18]: 100; Plant response rating (0 = no effect, 100 = complete control), Nightshade ([6]; 125 g ai/ha, preemergence): 100; Plant response rating, Nightshade [6, 18]: 100; Plant response rating (0 = no effect, 100 = complete control), Velvetleaf ([7]; 125 g ai/ha, preemergence): 45; Plant response rating, Velvetleaf [7, 18]: 100; Ducksalad plant response rating ([8]; 62 g ai/ha, scale 0 to 100): 0; Ducksalad plant response rating ([8]; 125 g ai/ha, scale 0 to 100 (0 no effect, 100 complete control)): 0; Ducksalad plant response rating ([8]; 250 g ai/ha, scale of 0 to 100, 0 is no effect, 100 is complete control): 65; Plant response rating, Ducksalad ([8]; 500 g ai/ha, visual rating after 12 to 14 days, scale 0 to 100 (0 no effect, 100 complete control)): 75
